The values below come from patent US20250381110A1, “SKIN CARE COMPOSITION AND METHOD OF USING THE SAME” (THE PROCTER & GAMBLE COMPANY, priority 2024, published 2025).

Test [1] concerns p62-dependent mitophagy. Nature of the test: Luciferase-p62 assay (Fluc-p62 clearance) in mouse embryonic fibroblasts. The note with it: for Mean Luminescence: Luciferase-p62 assay, mouse embryonic fibroblasts (MEFs), compounds at 10 μM; for % Activity over baseline: percentage of Luciferase-p62 clearance relative to baseline (mean luminescence in the absence of doxycycline induction); for % Activity over baseline / % Activity relative to Rapamycin: MEFs, 10 μM; for % Activity relative to Rapamycin: percentage of activity relative to rapamycin tested in the same experiment at the same concentration. The class given is cell-based. Summed up: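 MEFs with doxycycline-inducible Fluc-p62; after induction, doxycycline removed and cells treated 48 h with compounds at 10 μM. Fluc-p62 clearance, taken as mitophagy, read by ONE-Glo+Tox luciferase with viability. Vehicle (DMSO) as negative control; activity also expressed relative to rapamycin.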

Test [2] concerns p62-dependent mitophagy. Nature of the test: Luciferase-p62 clearance assay, stated for HDFs. Format: cell-based, human. The note with it: 5 μM; HDFs. How it is done: (§1) FIGS. 15A-15C show hydroxycinnamic acids (HCAs) tested in mitophagy assays in primary HDFs. […] 80,000 mixed aged Fibroblasts expressing the Su9-Halo-GFP reporter were treated for 48 h with the indicated HCAs. A change in the reporter excitation occurs because the GFP tag is quenched in the lysosome environment, indicating mitophagy.
To identify p62-dependent materials which increase mitophagy, a Luciferase-p62 Assay was established. This method provides an approach to measure the ability of a material to modulate p62-dependent mitophagy by using an inducible firefly luciferase-p62 (Fluc-p62) reporter cell system. In this assay, p62 levels are driven by doxycycline treatment. After levels increased, expression of Fluc-p62 is turned off by removal of doxycycline, materials are then added and assessed for how they affect clearance of Fluc-p62 protein, which is proportionate to cellular mitophagy rates (Kelly et al.). […]
Test materials including bioactive materials were screened in mouse embryonic fibroblasts (MEFs, Harada et al.) expressing the TET-inducible p62-fluc construct as previously described (Brown et al.). […] Subsequently, cells were treated with test materials for 48 hours in normal growth medium and analysed using ONE-Glo™+Tox Luciferase Reporter and Cell Viability Assay (Promega) by following the manufacturer's protocol.

The test system of test [3] is primary human dermal fibroblasts (HDFs). Nature of the test: Mitophagy assay, Su9-Halo-GFP reporter, fluorescence microscopy. The class given is cell-based. As for the experimental part: as §1
Primary human dermal fibroblasts (HDFs) were cultured in DMEM supplemented with 10 percent FBS, 100 units per milliliter penicillin/streptomycin, and 2 millimolar L-glutamine in a humidified atmosphere containing 5 percent carbon dioxide at 37 degrees Celsius. Stable expression of mt-mKeima was achieved through retroviral transduction (Kelly et al.). Cells stably expressing mt-mKeima were seeded in a 35 mm glass bottom dish (MatTek). The live-cell mt-Keima signal was obtained via widefield microscopy using the DMi8 and 2 filtersets to obtain the acidic (561 nm excitation, “red”) and pH-neutral (480 nm, “green”) mKeima signals. Using FIJI/ImageJ, a macro was applied to the mt-mKeima signal to extract mitolysosomes. […] Mitophagy events were determined as the number of puncta per cell. […] Fluorescence images were obtained using an LSM700 confocal microscope (Zeiss). The number of mitolysosomes (GFP-Halo+puncta) per cell was quantified using proprietary plugin in Fiji/ImageJ. […]

On to `CC1=C(/C=C/C(C)=C/C=C/C(C)=C/C(=O)O)C(C)(C)CCC1` [Tretinoin (Aberela)], for which, in the test with p62-dependent mitophagy [1], the “Mean Luminescence” value worked out at 773.39, the “% Activity over baseline” value came to 52.20% and the “% Activity relative to Rapamycin” value is recorded as 94.06%.

For `CN1[C@@H]2CC[C@H]1CC(=O)C2` [Tropinone], in the test with p62-dependent mitophagy [1], the “Mean Luminescence” value came out at 896.55, the “% Activity over baseline” value is 44.59% and the “% Activity relative to Rapamycin” value is reported as 80.34%.

Turning to `O=c1cc[nH]c(=O)[nH]1` [Uracil], in the test on p62-dependent mitophagy [1], the “Mean Luminescence” value stood at 927.30, the “% Activity over baseline” value is listed as 42.69% and the “% Activity relative to Rapamycin” value amounted to 76.92%.

`O=c1ccn([C@@H]2O[C@H](CO)[C@@H](O)[C@H]2O)c(=O)[nH]1` [Uridine]: in the test with p62-dependent mitophagy [1], the “Mean Luminescence” value is reported as 955.62, the “% Activity over baseline” value came out at 40.94% and the “% Activity relative to Rapamycin” value came out at 73.77%.

For `O=c1oc2cc(O)ccc2c2ccc(O)cc12` [Urolithin A], in the test on p62-dependent mitophagy [1], the “Mean Luminescence” value came to 884.12, the “% Activity over baseline” value was found to be 45.36% and the “% Activity relative to Rapamycin” value was 81.73%.

`C[C@H]1[C@H](C)CC[C@]2(C(=O)O)CC[C@]3(C)C(=CC[C@@H]4[C@@]5(C)CC[C@H](O)C(C)(C)[C@@H]5CC[C@]43C)[C@H]12` [Ursolic acid]: in the test on p62-dependent mitophagy [1], the “Mean Luminescence” value is 905.10, the “% Activity over baseline” value was determined as 44.06% and the “% Activity relative to Rapamycin” value is listed as 79.39%.

Regarding `COc1ccc(C=O)cc1OC` [Veratraldehyde], in the test with p62-dependent mitophagy [1], the “Mean Luminescence” value was found to be 887.33, the “% Activity over baseline” value was found to be 45.16% and the “% Activity relative to Rapamycin” value came out at 81.37%.

Consider `COc1ccc(C(=O)O)cc1OC` [Veratric acid], for which, in the test on p62-dependent mitophagy [1], the “Mean Luminescence” value was found to be 937.88, the “% Activity over baseline” value worked out at 42.04% and the “% Activity relative to Rapamycin” value came out at 75.74%.

As for `CC[C@]12CCCN3CCc4c(n(c5ccccc45)[C@@](O)(C(=O)OC)C1)[C@@H]32` [Vincamine], in the test on p62-dependent mitophagy [1], the “Mean Luminescence” value was determined as 716.24, the “% Activity over baseline” value is on record as 55.74% and the “% Activity relative to Rapamycin” value turned out to be 100.42%.

Turning to `CCC12C=CCN3CC[C@@]4(c5ccc(OC)cc5N(C)[C@H]4[C@@](O)(C(=O)OC)[C@@H]1OC(C)=O)[C@@H]32` (stereo partly drawn) [Vindoline], in the test on p62-dependent mitophagy [1], the “Mean Luminescence” value turned out to be 930.98, the “% Activity over baseline” value is on record as 42.46% and the “% Activity relative to Rapamycin” value is reported as 76.51%.

Regarding `O=C1O[C@H]([C@@H](O)CO)C(O)=C1O` [Vitamin C], in the test on p62-dependent mitophagy [1], the “Mean Luminescence” value amounted to 962.07, the “% Activity over baseline” value worked out at 40.54% and the “% Activity relative to Rapamycin” value is 73.05%.

As to `C=C1CC[C@H](O)C/C1=C/C=C1\CCC[C@]2(C)[C@@H]([C@H](C)CCCC(C)C)CC[C@@H]12` [Vitamin D3], in the test on p62-dependent mitophagy [1], the “Mean Luminescence” value is recorded as 488.16, the “% Activity over baseline” value came out at 69.83% and the “% Activity relative to Rapamycin” value is listed as 125.82%.

For `COc1cc(O)c(CC=C(C)C)c(O)c1C(=O)/C=C/c1ccc(O)cc1` [Xanthohumol], in the test on p62-dependent mitophagy [1], the “Mean Luminescence” value came out at 485.82, the “% Activity over baseline” value came to 69.98% and the “% Activity relative to Rapamycin” value is on record as 126.08%.

On to `CCC/C=C1\OC(=O)C2=C1CCC=C2` [Z-Ligustilide], for which, in the test with p62-dependent mitophagy [1], the “Mean Luminescence” value came to 895.67, the “% Activity over baseline” value was found to be 44.65% and the “% Activity relative to Rapamycin” value is reported as 80.44%.

In the case of `CC1=C(/C=C/C(C)=C/C=C/C(C)=C/C=O)C(C)(C)CCC1` [all-trans Retinal], in the test with p62-dependent mitophagy [1], the “Mean Luminescence” value stood at 967.12, the “% Activity over baseline” value stood at 40.23% and the “% Activity relative to Rapamycin” value came to 72.49%.

Turning to `O=C(O)c1cccc(O)c1` [m-Hydroxybenzoic acid], in the test on p62-dependent mitophagy [1], the “Mean Luminescence” value is recorded as 745.89, the “% Activity over baseline” value was determined as 53.90% and the “% Activity relative to Rapamycin” value came out at 97.12%.

Regarding `O[C@H]1[C@H](O)[C@@H](O)[C@H](O)[C@@H](O)[C@H]1O` [myo-Inositol], in the test with p62-dependent mitophagy [1], the “Mean Luminescence” value is 670.16, the “% Activity over baseline” value is 58.58% and the “% Activity relative to Rapamycin” value turned out to be 105.55%.

Turning to `O=C(O)/C=C/c1ccc(O)cc1` [p-coumaric acid], in the test with p62-dependent mitophagy [2], the “p62-dependent mitophagy vs. untreated control cells” value is reported as “significantly increases p62-dependent mitophagy”. Also, in test [3] (8 μM, 48 h, mixed aged fibroblasts, Su9-Halo-GFP reporter), the “mitophagy events by fluorescence microscopy” value is reported as “increases mitophagy events”. Further, the “increase of basal mitophagy levels, dose-response comparison with ferulic acid” value in test [3] (0.1-8 μM, HDFs) is “outperforms an O-methylated form (ferulic acid)”.

For the molecule `C/C(=C\CNc1ncnc2nc[nH]c12)CO` [trans-Zeatin], in the test with p62-dependent mitophagy [1], the “Mean Luminescence” value stood at 994.70, the “% Activity over baseline” value came out at 38.53% and the “% Activity relative to Rapamycin” value was found to be 69.42%.

Turning to `O=c1cc(-c2ccccc2)oc2c1ccc1ccccc12` [α-Naphthoflavone], in the test on p62-dependent mitophagy [1], the “Mean Luminescence” value was 781.48, the “% Activity over baseline” value is given as 51.70% and the “% Activity relative to Rapamycin” value stood at 93.16%.

Consider Bacitracin Zinc, for which, in the test on p62-dependent mitophagy [1], the “Mean Luminescence” value is 919.94, the “% Activity over baseline” value was determined as 43.15% and the “% Activity relative to Rapamycin” value was 77.74%.

Turning to Bleomycin Sulfate, in the test on p62-dependent mitophagy [1], the “Mean Luminescence” value is given as 615.38, the “% Activity over baseline” value is on record as 61.97% and the “% Activity relative to Rapamycin” value is 111.65%.

For the molecule Picrotoxin, in the test on p62-dependent mitophagy [1], the “Mean Luminescence” value was found to be 868.69, the “% Activity over baseline” value is listed as 46.31% and the “% Activity relative to Rapamycin” value is 83.45%.

In the case of Schisantherin A, in the test with p62-dependent mitophagy [1], the “Mean Luminescence” value stood at 875.42, the “% Activity over baseline” value is 45.90% and the “% Activity relative to Rapamycin” value is recorded as 82.70%.

For Tubeimoside I, in the test on p62-dependent mitophagy [1], the “Mean Luminescence” value was 257.38, the “% Activity over baseline” value is on record as 84.09% and the “% Activity relative to Rapamycin” value is 151.52%.
